Tested on: patients with chronic schizophrenia
Assay: PANSS total score, Clinical Study Four
Assay type: in vivo, human
Conditions: FAS; for Adjusted Mean Change from Baseline in PANSS Total Score, Least Squares Estimates Mean / Change from Baseline in PANSS Total Score, Difference to PBO Mean / PANSS total, Adjusted Mean Change from Baseline (LS mean): ANCOVA; for PANSS total, Adjusted Mean Change from Baseline (LS mean): BX20 = 20 mg, BX30 = 30 mg
Method: METHODOLOGY: This study was a multinational, multicenter, randomized, double-blind, parallel-group, placebo-controlled, fixed-dose study. The study consisted of a 3- to 6-day antipsychotic-free run-in period, after which patients were randomised to 6 months of double-blind treatment with fixed doses of bifeprunox (20 mg/day (BX20) or 30 mg/day (BX30)) or placebo (PBO). Patients allocated to the BX groups were up-titrated from 0.25 mg/day over 7 days (BX20) or 8 days (BX30), and then continued on these doses for the remainder of the study. […] At predetermined time points, blood samples were obtained for drug concentration analysis of BX and its major metabolites (3′- and 4′-sulfate conjugates of BX), and pharmaco-economic assessments were performed.

O=c1[nH]c2cccc(N3CCN(Cc4cccc(-c5ccccc5)c4)CC3)c2o1 [Bifeprunox, 7-[4-([1,1′-biphenyl]-3-ylmethyl)-1-piperazinyl]-2(3H)-benzoxazolone]
Adjusted Mean Change from Baseline in PANSS Total Score, Least Squares Estimates Mean (Day 42, POCF, listed as BX20): −9.40
Change from Baseline in PANSS Total Score, Difference to PBO Mean (Day 42, POCF, listed as BX20): −4.32
Adjusted Mean Change from Baseline in PANSS Total Score, Least Squares Estimates Mean (Day 42, POCF, listed as BX30): −8.12
Change from Baseline in PANSS Total Score, Difference to PBO Mean (Day 42, POCF, listed as BX30): −3.05
Adjusted Mean Change from Baseline in PANSS Total Score, Least Squares Estimates Mean (Day 63, LOCF, listed as BX20): −3.22
Change from Baseline in PANSS Total Score, Difference to PBO Mean (Day 63, LOCF, listed as BX20): −5.47
Adjusted Mean Change from Baseline in PANSS Total Score, Least Squares Estimates Mean (Day 63, LOCF, listed as BX30): −2.44
Change from Baseline in PANSS Total Score, Difference to PBO Mean (Day 63, LOCF, listed as BX30): −4.68
Adjusted Mean Change from Baseline in PANSS Total Score, Least Squares Estimates Mean (Day 63, OC, listed as BX20): −12.85
Change from Baseline in PANSS Total Score, Difference to PBO Mean (Day 63, OC, listed as BX20): −4.52
Adjusted Mean Change from Baseline in PANSS Total Score, Least Squares Estimates Mean (Day 63, OC, listed as BX30): −12.45
Change from Baseline in PANSS Total Score, Difference to PBO Mean (Day 63, OC, listed as BX30): −4.12
Adjusted Mean Change from Baseline in PANSS Total Score, Least Squares Estimates Mean (Day 63, POCF, listed as BX20): −10.03
Change from Baseline in PANSS Total Score, Difference to PBO Mean (Day 63, POCF, listed as BX20): −4.83
Adjusted Mean Change from Baseline in PANSS Total Score, Least Squares Estimates Mean (Day 63, POCF, listed as BX30): −8.97
Change from Baseline in PANSS Total Score, Difference to PBO Mean (Day 63, POCF, listed as BX30): −3.77
Adjusted Mean Change from Baseline in PANSS Total Score, Least Squares Estimates Mean (Day 90, LOCF, listed as BX20): −2.18
Change from Baseline in PANSS Total Score, Difference to PBO Mean (Day 90, LOCF, listed as BX20): −5.85
Adjusted Mean Change from Baseline in PANSS Total Score, Least Squares Estimates Mean (Day 90, LOCF, listed as BX30): −1.47
Change from Baseline in PANSS Total Score, Difference to PBO Mean (Day 90, LOCF, listed as BX30): −5.14
Adjusted Mean Change from Baseline in PANSS Total Score, Least Squares Estimates Mean (Day 90, OC, listed as BX20): −14.17
Change from Baseline in PANSS Total Score, Difference to PBO Mean (Day 90, OC, listed as BX20): −4.92
Adjusted Mean Change from Baseline in PANSS Total Score, Least Squares Estimates Mean (Day 90, OC, listed as BX30): −12.71
Change from Baseline in PANSS Total Score, Difference to PBO Mean (Day 90, OC, listed as BX30): −3.46
Adjusted Mean Change from Baseline in PANSS Total Score, Least Squares Estimates Mean (Day 90, POCF, listed as BX20): −10.43
Change from Baseline in PANSS Total Score, Difference to PBO Mean (Day 90, POCF, listed as BX20): −5.19
Adjusted Mean Change from Baseline in PANSS Total Score, Least Squares Estimates Mean (Day 90, POCF, listed as BX30): −9.25
Change from Baseline in PANSS Total Score, Difference to PBO Mean (Day 90, POCF, listed as BX30): −4.00
Adjusted Mean Change from Baseline in PANSS Total Score, Least Squares Estimates Mean (Day 120, LOCF, listed as BX20): −1.20
Change from Baseline in PANSS Total Score, Difference to PBO Mean (Day 120, LOCF, listed as BX20): −6.50
Adjusted Mean Change from Baseline in PANSS Total Score, Least Squares Estimates Mean (Day 120, LOCF, listed as BX30): −0.84
Change from Baseline in PANSS Total Score, Difference to PBO Mean (Day 120, LOCF, listed as BX30): −6.14
Adjusted Mean Change from Baseline in PANSS Total Score, Least Squares Estimates Mean (Day 120, OC, listed as BX20): −15.81
Change from Baseline in PANSS Total Score, Difference to PBO Mean (Day 120, OC, listed as BX20): −5.45
Adjusted Mean Change from Baseline in PANSS Total Score, Least Squares Estimates Mean (Day 120, OC, listed as BX30): −14.56
Change from Baseline in PANSS Total Score, Difference to PBO Mean (Day 120, OC, listed as BX30): −4.19
Adjusted Mean Change from Baseline in PANSS Total Score, Least Squares Estimates Mean (Day 120, POCF, listed as BX20): −10.30
Change from Baseline in PANSS Total Score, Difference to PBO Mean (Day 120, POCF, listed as BX20): −5.21
Adjusted Mean Change from Baseline in PANSS Total Score, Least Squares Estimates Mean (Day 120, POCF, listed as BX30): −9.68
Change from Baseline in PANSS Total Score, Difference to PBO Mean (Day 120, POCF, listed as BX30): −4.59
Adjusted Mean Change from Baseline in PANSS Total Score, Least Squares Estimates Mean (Day 150, LOCF, listed as BX20): −0.56
Change from Baseline in PANSS Total Score, Difference to PBO Mean (Day 150, LOCF, listed as BX20): −7.04
Adjusted Mean Change from Baseline in PANSS Total Score, Least Squares Estimates Mean (Day 150, LOCF, listed as BX30): −0.31
Change from Baseline in PANSS Total Score, Difference to PBO Mean (Day 150, LOCF, listed as BX30): −6.80
Adjusted Mean Change from Baseline in PANSS Total Score, Least Squares Estimates Mean (Day 150, OC, listed as BX20): −16.36
Change from Baseline in PANSS Total Score, Difference to PBO Mean (Day 150, OC, listed as BX20): −1.97
Adjusted Mean Change from Baseline in PANSS Total Score, Least Squares Estimates Mean (Day 150, OC, listed as BX30): −15.93
Change from Baseline in PANSS Total Score, Difference to PBO Mean (Day 150, OC, listed as BX30): −1.54
Adjusted Mean Change from Baseline in PANSS Total Score, Least Squares Estimates Mean (Day 150, POCF, listed as BX20): −10.40
Change from Baseline in PANSS Total Score, Difference to PBO Mean (Day 150, POCF, listed as BX20): −5.20
Adjusted Mean Change from Baseline in PANSS Total Score, Least Squares Estimates Mean (Day 150, POCF, listed as BX30): −9.55
Change from Baseline in PANSS Total Score, Difference to PBO Mean (Day 150, POCF, listed as BX30): −4.35
Adjusted Mean Change from Baseline in PANSS Total Score, Least Squares Estimates Mean (Day 180, LOCF, listed as BX20): −0.81
Change from Baseline in PANSS Total Score, Difference to PBO Mean (Day 180, LOCF, listed as BX20): −7.91
Adjusted Mean Change from Baseline in PANSS Total Score, Least Squares Estimates Mean (Day 180, LOCF, listed as BX30): −0.44
Change from Baseline in PANSS Total Score, Difference to PBO Mean (Day 180, LOCF, listed as BX30): −7.54
Adjusted Mean Change from Baseline in PANSS Total Score, Least Squares Estimates Mean (Day 180, OC, listed as BX20): −18.09
Change from Baseline in PANSS Total Score, Difference to PBO Mean (Day 180, OC, listed as BX20): −3.60
Adjusted Mean Change from Baseline in PANSS Total Score, Least Squares Estimates Mean (Day 180, OC, listed as BX30): −18.58
Change from Baseline in PANSS Total Score, Difference to PBO Mean (Day 180, OC, listed as BX30): −4.09
Adjusted Mean Change from Baseline in PANSS Total Score, Least Squares Estimates Mean (Day 180, POCF, listed as BX20): −10.84
Change from Baseline in PANSS Total Score, Difference to PBO Mean (Day 180, POCF, listed as BX20): −5.43
Adjusted Mean Change from Baseline in PANSS Total Score, Least Squares Estimates Mean (Day 180, POCF, listed as BX30): −9.92
Change from Baseline in PANSS Total Score, Difference to PBO Mean (Day 180, POCF, listed as BX30): −4.52
PANSS total, Adjusted Mean Change from Baseline (LS mean) (Month 6, LOCF, listed as BX20): −4.0
PANSS total, Adjusted Mean Change from Baseline (LS mean) (Month 6, LOCF, listed as BX30): −0.4
PANSS total, Adjusted Mean Change from Baseline (LS mean) (Week 6, LOCF, listed as BX20): −4.0
PANSS total, Adjusted Mean Change from Baseline (LS mean) (Week 6, LOCF, listed as BX30): −2.6
PANSS total scores versus PBO, LOCF analysis (both BX groups): statistically significantly superior to that in the PBO group from Week 6 onwards

Source: US20090068290A1, “BIFEPRUNOX DOSES FOR TREATING SCHIZOPHRENIA” (priority 2006, published 2009)
